Data published in patent EP0432983A2 (priority 1989, dated 1991).
≈ marks a conversion by molar mass, not a printed value.

Tests used:
[1] = test system: P-388 (mouse DBA/2 lymphoid neoplasm); assay: General anti-tumour assay, P-388; assay type: cell-based
Description: (§1) With compounds AH-3, AH-4 and AH-5, four general anti-tumour assays and two cytotoxicity assays were performed. Current screening protocols were employed using test substance diluted as above and at varying concentrations. Tests were performed against the tumour cells P-388 (mouse DBA/2 lymphoid neoplasm), A-549 (human lung carcinoma), HT-29 (human colon carcinoma) and MCF-7 (human breast carcinoma) and for the cytotoxicity assays against CV-1 (monkey kidney fibroblast) and BHK (Hamster kidney fibroblast).
(§2) Scoring is performed as follows: (-) no activity - the number of cells is equal to the control of growth, 0-40% cell inhibition (+) low activity - numbers of cells are reduced by approx 50-60% (++) good activity - numbers of cells are reduced by approx 70-90% (+++) very good activity - there is 100% cell inhibition [(+) is the approximate IC₅₀]

[2] = test system: HSV-1 (herpes simplex virus, type 1); assay: General anti-viral assay, HSV-1 in CV-1 cells (plaque reduction); assay type: cell-based; conditions: Human alphaherpesvirus 1; CV-1/ HSV-1; read-out: IC50 µg/ml approx
[3] = test system: HT-29 (human colon carcinoma); assay: General anti-tumour assay, HT-29; assay type: cell-based
Description: as §1, §2

[4] = test system: CV-1 (monkey kidney fibroblast); assay: Cytotoxicity assay, CV-1; assay type: cell-based
Description: as §1, §2

[5] = test system: VSV (Vesicular Stomatitis Virus); assay: microbe, parasite or virus in culture; assay type: cell-based; conditions: BHK, read-out: IC50 µg/ml approx
[6] = test system: A-549 (human lung carcinoma); assay: General anti-tumour assay, A-549; assay type: cell-based
Description: as §1, §2

[7] = test system: BHK (Hamster kidney fibroblast); assay: Cytotoxicity assay, BHK; assay type: cell-based
Description: as §1, §2

[8] = test system: MCF-7 (human breast carcinoma); assay: General anti-tumour assay, MCF-7; assay type: cell-based
Description: as §1, §2

CC(C)=CCCC(C)C1CCC(C)c2c1cc(C)c1c2OCO1 (stereo not drawn) [AH-4, Helioporin D]
IC50 ([1]; Mus musculus, P388, P-388, read-out: IC50 µg/ml approx): ~2 µg/mL (≈ 6.36 µM)
activity (cell inhibition) ([1]; P-388, TEST CONC (µg) 0.2): - ((-) no activity - the number of cells is equal to the control of growth, 0-40% cell inhibition)
activity (cell inhibition) ([1]; P-388, TEST CONC (µg) 0.5): - ((-) no activity - the number of cells is equal to the control of growth, 0-40% cell inhibition)
activity (cell inhibition) ([1]; P-388, TEST CONC (µg) 1): - ((-) no activity - the number of cells is equal to the control of growth, 0-40% cell inhibition)
activity (cell inhibition) ([1]; P-388, TEST CONC (µg) 2): + ((+) low activity - numbers of cells are reduced by approx 50-60%)
activity (cell inhibition) ([1]; P-388, TEST CONC (µg) 5): ++ ((++) good activity - numbers of cells are reduced by approx 70-90%)
activity (cell inhibition) ([1]; P-388, TEST CONC (µg) 10): ++ ((++) good activity - numbers of cells are reduced by approx 70-90%)
activity (cell inhibition) ([1]; P-388, TEST CONC (µg) 20): ++ ((++) good activity - numbers of cells are reduced by approx 70-90%)
IC50 [2]: > 40 µg/mL
cytotoxicity (inhibition zone on the cell sheet) (BHK cells): 0-
activity (cell inhibition) ([3]; HT-29, TEST CONC (µg) 0.2): - ((-) no activity - the number of cells is equal to the control of growth, 0-40% cell inhibition)
activity (cell inhibition) ([3]; HT-29, TEST CONC (µg) 0.5): - ((-) no activity - the number of cells is equal to the control of growth, 0-40% cell inhibition)
activity (cell inhibition) ([3]; HT-29, TEST CONC (µg) 1): - ((-) no activity - the number of cells is equal to the control of growth, 0-40% cell inhibition)
activity (cell inhibition) ([3]; HT-29, TEST CONC (µg) 2): - ((-) no activity - the number of cells is equal to the control of growth, 0-40% cell inhibition)
activity (cell inhibition) ([3]; HT-29, TEST CONC (µg) 5): + ((+) low activity - numbers of cells are reduced by approx 50-60%)
activity (cell inhibition) ([3]; HT-29, TEST CONC (µg) 10): +++ ((+++) very good activity - there is 100% cell inhibition)
activity (cell inhibition) ([3]; HT-29, TEST CONC (µg) 20): +++ ((+++) very good activity - there is 100% cell inhibition)
IC50 ([3]; Homo sapiens, HT-29, read-out: IC50 µg/ml approx): ~5 µg/mL (≈ 15.9 µM)
activity (cell inhibition) ([4]; CV-1, TEST CONC (µg) 0.2): - ((-) no activity - the number of cells is equal to the control of growth, 0-40% cell inhibition)
activity (cell inhibition) ([4]; CV-1, TEST CONC (µg) 0.5): - ((-) no activity - the number of cells is equal to the control of growth, 0-40% cell inhibition)
activity (cell inhibition) ([4]; CV-1, TEST CONC (µg) 1): - ((-) no activity - the number of cells is equal to the control of growth, 0-40% cell inhibition)
activity (cell inhibition) ([4]; CV-1, TEST CONC (µg) 2): - ((-) no activity - the number of cells is equal to the control of growth, 0-40% cell inhibition)
activity (cell inhibition) ([4]; CV-1, TEST CONC (µg) 5): - ((-) no activity - the number of cells is equal to the control of growth, 0-40% cell inhibition)
activity (cell inhibition) ([4]; CV-1, TEST CONC (µg) 10): + ((+) low activity - numbers of cells are reduced by approx 50-60%)
activity (cell inhibition) ([4]; CV-1, TEST CONC (µg) 20): ++ ((++) good activity - numbers of cells are reduced by approx 70-90%)
IC50 ([4]; Primates, CV-1, read-out: IC50 µg/ml approx): ~10 µg/mL (≈ 31.8 µM)
IC50 [5]: > 40 µg/mL
activity (cell inhibition) ([6]; A-549, TEST CONC (µg) 0.2): - ((-) no activity - the number of cells is equal to the control of growth, 0-40% cell inhibition)
activity (cell inhibition) ([6]; A-549, TEST CONC (µg) 0.5): - ((-) no activity - the number of cells is equal to the control of growth, 0-40% cell inhibition)
activity (cell inhibition) ([6]; A-549, TEST CONC (µg) 1): - ((-) no activity - the number of cells is equal to the control of growth, 0-40% cell inhibition)
activity (cell inhibition) ([6]; A-549, TEST CONC (µg) 2): - ((-) no activity - the number of cells is equal to the control of growth, 0-40% cell inhibition)
activity (cell inhibition) ([6]; A-549, TEST CONC (µg) 5): - ((-) no activity - the number of cells is equal to the control of growth, 0-40% cell inhibition)
activity (cell inhibition) ([6]; A-549, TEST CONC (µg) 10): ++ ((++) good activity - numbers of cells are reduced by approx 70-90%)
activity (cell inhibition) ([6]; A-549, TEST CONC (µg) 20): ++ ((++) good activity - numbers of cells are reduced by approx 70-90%)
IC50 ([6]; Homo sapiens, A549, A-549, read-out: IC50 µg/ml approx): 5 to 10 µg/mL (≈ 15.9 to 31.8 µM)
IC50 ([7]; Mesocricetus auratus, read-out: IC50 µg/ml approx): 2 to 5 µg/mL (≈ 6.36 to 15.9 µM)
activity (cell inhibition) ([7]; TEST CONC (µg) 0.2): - ((-) no activity - the number of cells is equal to the control of growth, 0-40% cell inhibition)
activity (cell inhibition) ([7]; TEST CONC (µg) 0.5): - ((-) no activity - the number of cells is equal to the control of growth, 0-40% cell inhibition)
activity (cell inhibition) ([7]; TEST CONC (µg) 1): - ((-) no activity - the number of cells is equal to the control of growth, 0-40% cell inhibition)
activity (cell inhibition) ([7]; TEST CONC (µg) 2): - ((-) no activity - the number of cells is equal to the control of growth, 0-40% cell inhibition)
activity (cell inhibition) ([7]; TEST CONC (µg) 5): ++ ((++) good activity - numbers of cells are reduced by approx 70-90%)
activity (cell inhibition) ([7]; TEST CONC (µg) 10): +++ ((+++) very good activity - there is 100% cell inhibition)
activity (cell inhibition) ([7]; TEST CONC (µg) 20): +++ ((+++) very good activity - there is 100% cell inhibition)
IC50 ([8]; Homo sapiens, MCF7, MCF-7, read-out: IC50 µg/ml approx): ~10 µg/mL (≈ 31.8 µM)
activity (cell inhibition) ([8]; MCF-7, TEST CONC (µg) 0.2): - ((-) no activity - the number of cells is equal to the control of growth, 0-40% cell inhibition)
activity (cell inhibition) ([8]; MCF-7, TEST CONC (µg) 0.5): - ((-) no activity - the number of cells is equal to the control of growth, 0-40% cell inhibition)
activity (cell inhibition) ([8]; MCF-7, TEST CONC (µg) 1): - ((-) no activity - the number of cells is equal to the control of growth, 0-40% cell inhibition)
activity (cell inhibition) ([8]; MCF-7, TEST CONC (µg) 2): - ((-) no activity - the number of cells is equal to the control of growth, 0-40% cell inhibition)
activity (cell inhibition) ([8]; MCF-7, TEST CONC (µg) 5): - ((-) no activity - the number of cells is equal to the control of growth, 0-40% cell inhibition)
activity (cell inhibition) ([8]; MCF-7, TEST CONC (µg) 10): + ((+) low activity - numbers of cells are reduced by approx 50-60%)
activity (cell inhibition) ([8]; MCF-7, TEST CONC (µg) 20): ++ ((++) good activity - numbers of cells are reduced by approx 70-90%)
